# Values joined by “and” are separate entries in the source; they are usually repeats but may differ in a detail not shown here. Equal values may be shown once.
# Tested on: SW 1271 complex tumor spheroid viability
# Test: Anticancer human tumor SW 1271 cell line growth inhibition;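 note: spheroids exposed to agents for seven days before readout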;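 for viability, T/C: percent of DMSO vehicle control luminescence so 100% = vehicle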
# Details: for viability, T/C: stronger effect = lower value
# Excerpt: Multicellular complex tumor spheroid response to DNA repair inhibitors in combination with DNA-damaging drugs
# This study explores the anticancer activities of DNA-damaging drugs and inhibitors of DNA damage repair, both as single agents and in combinations. Complex tumor spheroids comprised of malignant cells, endothelial cells and mesenchymal stem cells served as an in vitro model for human solid tumors. This model system incorporates physiologically relevant features and patient-derived or established malignant cell lines with clinically relevant genetic alterations from many tumor types. Twenty-six patient-derived or established malignant cell lines were evaluated representing sarcoma, melanoma, small cell lung cancer (SCLC), non-small cell lung cancer (NSCLC), as well as bladder, ovarian and pancreatic cancers. The concentration ranges selected for each drug and investigational agent were based upon clinically achievable concentrations if the clinical Cmax of the agent was known.
# Compounds. The drugs and compounds olaparib (NSC753686), talazoparib (NSC767125), berzosertib (NSC777718), elimusertib (NSC800525), nedisertib (NSC802822), VX-984 (NSC792969), AZD-1390 (NSC803789), temozolomide (NSC362856), topotecan (NSC609699), trabectedin (NSC813783), staurosporine (NSC755774), and gemcitabine (NSC613327) were obtained from the National Cancer Institute (NCI) Developmental Therapeutics Program Chemical Repository. The FDA-approved anticancer drug set is available from the Developmental Therapeutics Program at https://dtp.cancer.gov/organization/dscb/obtaining/available_plates.htm. […] The stock solutions were prepared in dimethyl sulfoxide (DMSO, Sigma-Aldrich, St. Louis, MO, cat. D2650) at 400-fold the tested concentration and stored at -70 degrees C. Prior to their use, the stock solutions were diluted in fresh medium and the final DMSO concentration in the assay was 0.25% (v/v). All drugs and investigational agents were tested over a range starting from a high concentration at or near the clinical Cmax and decreasing in half-log increments. If the clinical Cmax for an agent had not been determined, the highest concentration tested was 10 microM.
# Cell Lines. The patient-derived cancer cell (PDC) lines: 156681-154-R-J1-PDC, 283228-195-R-J1-PDC, 287954-098-R-J1-PDC, 292921-168-R-J2-PDC, 349418-098-R-PDC, 425362-245-T-J1-PDC, 556581-035-R-J1-PDC, and BL0293-F563-PDC were received from the NCI Patient-Derived Models Repository (PDMR, https://pdmr.cancer.gov). The established cell lines HS-SY-2 (RRID:CVCL_8719), MPNST, and SYO-1 (RRID:CVCL_7146) were obtained from the Sloan Kettering Institute. The alveolar soft parts sarcoma cell line ASPS-1 (RRID:CVCL_S738) was established at the NCI and grown from internal seed stocks. The following established cell lines were purchased from the American Type Culture Collection (ATCC, Manassas, VA): G-401 (ATCC, cat. CRL-1441, RRID:CVCL_0270), SW982 (ATCC, cat. HTB-93, RRID:CVCL_1734), VA-ES-BJ (ATCC, cat. CRL-2138, RRID:CVCL_1785), NCI-H719 (ATCC, cat. CRL-5837, RRID:CVCL_1582), NCI-H196 (ATCC, cat. CRL-5823, RRID:CVCL_1509), NCI-H841 (ATCC, cat. CRL-5845, RRID:CVCL_1595), NCI-H1618 (ATCC, cat. CRL-5879, RRID:CVCL_1480), NCI-H1876 (ATCC, cat. CRL-5902, RRID:CVCL_1503), DMS 114 (ATCC, cat. CRL-2066; RRID:CVCL_1174), NCI-H211 (ATCC, cat. CRL-5824; RRID:CVCL_1529), and SW 1271 (ATCC, cat. CRL-2177, RRID:CVCL_1716). The small cell lung cancer cell line COR-L88 was purchased from Sigma-Aldrich (cat. 92031917-1VL, RRID:CVCL_1141). The non-small cell lung cancer cell lines NCI-H226 (RRID:CVCL_1544) and NCI-H322M (RRID:CVCL_1557) were established at the NCI and grown from internal seed stocks. Pooled donor human umbilical vein endothelial cells (HUVEC, Lonza, cat. CC-2519) and human mesenchymal stem cells (hMSC, Lonza, cat. PT-2501) were purchased from Lonza (Walkersville, MD).
# Cell Culture. All cells were maintained in an incubator at 37 degrees C and 5% CO2 with 95% humidity. […]
# [1] = curve of first compound, second compound 0.003 µM
# [2] = curve of first compound, second compound 30 pM
# [3] = curve of first compound, second compound 94.9 pM
# [4] = curve of first compound, second compound 0.0003 µM
# [5] = curve of first compound, second compound 0.000949 µM
# [6] = second compound 30 pM, first compound 0.0316 µM
# [7] = second compound 30 pM, first compound 0.1 µM
# [8] = second compound 30 pM, first compound 0.316 µM
# [9] = second compound 30 pM, first compound 1 µM
# [10] = second compound 30 pM, first compound 3.16 µM
# [11] = second compound 30 pM, first compound 10 µM
# [12] = second compound 94.9 pM, first compound 0.0316 µM
# [13] = second compound 94.9 pM, first compound 0.1 µM
# [14] = second compound 94.9 pM, first compound 0.316 µM
# [15] = second compound 94.9 pM, first compound 1 µM
# [16] = second compound 94.9 pM, first compound 3.16 µM
# [17] = second compound 94.9 pM, first compound 10 µM
# [18] = second compound 0.0003 µM, first compound 0.0316 µM
# [19] = second compound 0.0003 µM, first compound 0.1 µM
# [20] = second compound 0.0003 µM, first compound 0.316 µM
# [21] = second compound 0.0003 µM, first compound 1 µM
# [22] = second compound 0.0003 µM, first compound 3.16 µM
# [23] = second compound 0.0003 µM, first compound 10 µM
# [24] = second compound 0.000949 µM, first compound 0.0316 µM
# [25] = second compound 0.000949 µM, first compound 0.1 µM
# [26] = second compound 0.000949 µM, first compound 0.316 µM
# [27] = second compound 0.000949 µM, first compound 1 µM
# [28] = second compound 0.000949 µM, first compound 3.16 µM
# [29] = second compound 0.000949 µM, first compound 10 µM
# [30] = second compound 0.003 µM, first compound 0.0316 µM
# [31] = second compound 0.003 µM, first compound 0.1 µM
# [32] = second compound 0.003 µM, first compound 0.316 µM
# [33] = second compound 0.003 µM, first compound 1 µM
# [34] = second compound 0.003 µM, first compound 3.16 µM
# [35] = second compound 0.003 µM, first compound 10 µM
structure (smiles),measurement,setting,value
CNCc1ccc(-c2cc(-c3nc(-c4ccc(S(=O)(=O)C(C)C)cc4)cnc3N)on2)cc1 + CC[C@@]1(O)C(=O)OCc2c1cc1n(c2=O)Cc2cc3c(CN(C)C)c(O)ccc3nc2-1,IC50,[1],39.3 nM
same,IC50,"curve of first compound, second compound 0.00949 µM",< 9.49 nM
same,IC50,"curve of first compound, second compound 0.03 µM",< 9.49 nM
same,IC50,"curve of first compound, second compound 0.0949 µM",< 9.49 nM
same,IC50,"curve of first compound, second compound 0.3 µM",< 9.49 nM
same,"viability, T/C","second compound 0.003 µM, first compound 0.00949 µM",84.7%
same,"viability, T/C","second compound 0.003 µM, first compound 0.03 µM",60.7%
same,"viability, T/C","second compound 0.003 µM, first compound 0.0949 µM",21.3%
same,"viability, T/C","second compound 0.003 µM, first compound 0.3 µM",27.2%
same,"viability, T/C","second compound 0.003 µM, first compound 0.949 µM",5.87%
same,"viability, T/C","second compound 0.003 µM, first compound 3 µM",0.11%
same,"viability, T/C","second compound 0.00949 µM, first compound 0.00949 µM",38.9%
same,"viability, T/C","second compound 0.00949 µM, first compound 0.03 µM",29%
same,"viability, T/C","second compound 0.00949 µM, first compound 0.0949 µM",19.9%
same,"viability, T/C","second compound 0.00949 µM, first compound 0.3 µM",11.5%
same,"viability, T/C","second compound 0.00949 µM, first compound 0.949 µM",9.07%
same,"viability, T/C","second compound 0.00949 µM, first compound 3 µM",0.1%
same,"viability, T/C","second compound 0.03 µM, first compound 0.00949 µM",22.5%
same,"viability, T/C","second compound 0.03 µM, first compound 0.03 µM",23.3%
same,"viability, T/C","second compound 0.03 µM, first compound 0.0949 µM",20.2%
same,"viability, T/C","second compound 0.03 µM, first compound 0.3 µM",34.2%
same,"viability, T/C","second compound 0.03 µM, first compound 0.949 µM",12%
same,"viability, T/C","second compound 0.03 µM, first compound 3 µM",0.09%
same,"viability, T/C","second compound 0.0949 µM, first compound 0.00949 µM",23.2%
same,"viability, T/C","second compound 0.0949 µM, first compound 0.03 µM",25.8%
same,"viability, T/C","second compound 0.0949 µM, first compound 0.0949 µM",21.6%
same,"viability, T/C","second compound 0.0949 µM, first compound 0.3 µM",20.5%
same,"viability, T/C","second compound 0.0949 µM, first compound 0.949 µM",10.8%
same,"viability, T/C","second compound 0.0949 µM, first compound 3 µM",0.09%
same,"viability, T/C","second compound 0.3 µM, first compound 0.00949 µM",18.1%
same,"viability, T/C","second compound 0.3 µM, first compound 0.03 µM",17%
same,"viability, T/C","second compound 0.3 µM, first compound 0.0949 µM",20.4%
same,"viability, T/C","second compound 0.3 µM, first compound 0.3 µM",10.8%
same,"viability, T/C","second compound 0.3 µM, first compound 0.949 µM",1.75%
same,"viability, T/C","second compound 0.3 µM, first compound 3 µM",7.62%
CC(C)n1c(=O)n(C)c2cnc3cc(F)c(-c4ccc(OCCCN5CCCCC5)nc4)cc3c21 + COc1cc2c(cc1O)CCNC21CSC2c3c(OC(C)=O)c(C)c4c(c3C(COC1=O)N1C(O)C3Cc5cc(C)c(OC)c(O)c5C(C21)N3C)OCO4,IC50,[2],931 nM
same,IC50,[3],< 31.6 nM
same,IC50,[4],< 31.6 nM
same,IC50,[5],< 31.6 nM
same,IC50,[1],< 31.6 nM
same,"viability, T/C",[6],65%
same,"viability, T/C",[7],57.5%
same,"viability, T/C",[8],53.4%
same,"viability, T/C",[9],45.6%
same,"viability, T/C",[10],51.8%
same,"viability, T/C",[11],29.3%
same,"viability, T/C",[12],29.6%
same,"viability, T/C",[13],28.7%
same,"viability, T/C",[14],22.3%
same,"viability, T/C",[15],24.2%
same,"viability, T/C",[16],20.9%
same,"viability, T/C",[17],15.8%
same,"viability, T/C",[18],28.5%
same,"viability, T/C",[19],33.3%
same,"viability, T/C",[20],24.7%
same,"viability, T/C",[21],24.2%
same,"viability, T/C",[22],19.1%
same,"viability, T/C",[23],12.9%
same,"viability, T/C",[24],4.24%
same,"viability, T/C",[25],3.92%
same,"viability, T/C",[26],2.81%
same,"viability, T/C",[27],1.61%
same,"viability, T/C",[28],1.37%
same,"viability, T/C",[29],1.05%
same,"viability, T/C",[30],0.12%
same,"viability, T/C",[31],0.11%
same,"viability, T/C",[32],0.09%
same,"viability, T/C",[33],0.1%
same,"viability, T/C",[34],0.1%
same,"viability, T/C",[35],0.16%
CC1COCCN1c1cc(-c2ccnn2C)c2ccnc(-c3ccn[nH]3)c2n1 (stereo not drawn) + COc1cc2c(cc1O)CCNC21CSC2c3c(OC(C)=O)c(C)c4c(c3C(COC1=O)N1C(O)C3Cc5cc(C)c(OC)c(O)c5C(C21)N3C)OCO4,IC50,[2],< 31.6 nM
same,IC50,[3],< 31.6 nM
same,IC50,[4],< 31.6 nM
same,IC50,[5],< 31.6 nM
same,IC50,[1],< 31.6 nM
same,"viability, T/C",[6],42.9%
same,"viability, T/C",[7],12.5%
same,"viability, T/C",[8],7.53%
same,"viability, T/C",[9],3.2%
same,"viability, T/C",[10],2.78%
same,"viability, T/C",[11],2.04%
same,"viability, T/C",[12],10.9%
same,"viability, T/C",[13],6.89%
same,"viability, T/C",[14],5.14%
same,"viability, T/C",[15],3.73%
same,"viability, T/C",[16],1.95%
same,"viability, T/C",[17],2.12%
same,"viability, T/C",[18],10.8%
same,"viability, T/C",[19],6.88%
same,"viability, T/C",[20],5.11%
same,"viability, T/C",[21],2.88%
same,"viability, T/C",[22],1.51%
same,"viability, T/C",[23],1.29%
same,"viability, T/C",[24],3%
same,"viability, T/C",[25],1.96%
same,"viability, T/C",[26],1.34%
same,"viability, T/C",[27],1.09%
same,"viability, T/C",[28],0.1%
same,"viability, T/C",[29],0.3%
same,"viability, T/C",[30],0.1%
same,"viability, T/C",[31],0.09%
same,"viability, T/C",[32],0.1%
same,"viability, T/C",[33],0.08%
same,"viability, T/C",[34],0.09%
same,"viability, T/C",[35],0.15%
Cn1nnc2c(C(N)=O)ncn2c1=O,"viability, T/C",compound 1 µM,97% [middle of 10 runs]
same,"viability, T/C",compound 3.16 µM,103% [middle of 10 runs]
same,IC50,"compound alone, run of 11/07/2019",> 100000 nM and 20700 nM

# From PubChem BioAssay AID1845215 (Molecular Pharmacology Branch, DTP, NCI, 2023)
